Measurements as given in patent publication US9782385B2, “Artificial tears solution combination” (National Health Research Institutes, priority 2015, dated 2017).

Tests used:
[1] = system: inflammation cytokines (IL-1β, IL-6, IL-8, and TNF-α); test: Inflammation cytokines protein expression experiment (ELISA of cornea protein); format: in vivo; conditions: rabbit, BAC-induced dry eye, treatment twice a day for 2 weeks
Source text: In this experiment, firstly, a Benzalkonium Chloride (BAC) is dipped onto the eyes of a rabbit 3 times a day for 3 weeks, to induce the rabbit eyes to produce inflammation, and to cause it to have symptoms of moderate dry eye syndrome. Then, utilize various combined compounds of artificial tear solution, HA, and EGCG to proceed with treatments, twice a day for 2 weeks. Then, extract the protein from the rabbit's cornea to perform Enzyme-Linked Immunosorbent Assay (ELISA), to detect the protein expression of the inflammation cytokines (IL-1β, IL-6, IL-8, and TNF-α), and to observe and determine whether the inflammation cytokines were reduced, through treatment of various compounds of artificial tear solution, HA, and EGCG

[2] = system: inflammatory cytokines (IL-1β, IL-6, IL-8, and TNF-α); test: Gene expression experiment for inflammatory cytokines (Q-PCR) in LPS-induced HCEC; format: cell-based, Human; conditions: LPS 500 ng/ml induced HCEC, 2 hours with test material; compared with the other groups
Description: In this experiment, firstly, cultivate the Human Corneal Epithelial Cells (HCEC) for 48 hours, then utilize Lipopolysaccharide (LPS) at concentration of 500 ng/ml to induce HCEC for 3 hours, to make it to produce inflammatory reaction. Afterwards, add in the compound of EGCG and HA to cultivate with HCEC for 2 hours. The Gene Expression Experiment to evaluate Inflammatory cytokines was conducted for 3 days, and the samples for this experiment were obtained by collecting these cells on the third day. Firstly, utilize Trizol reagent to extract Ribonucleic Acid (RNA) of these cells, and then utilize the High-Capacity cDNA Reverse Transcription Kits made by manufacturer ABi to perform Reverse Transcription […] (RT-PCR), to synthesis the complementary deoxyribonucleic acid (cDNA). Subsequently, utilize the TagManR Fast Universal Master Mix (2X) made by manufacturer ABi, to perform Quantitative Real-Time PCR (Q-PCR) on the inflammatory cytokines (IL-1β, IL-6, IL-8, and TNF-α), to detect the gene expression of the inflammation cytokines (IL-1β, IL-6, IL-8, and TNF-α).

O=C(O[C@@H]1Cc2c(O)cc(O)cc2O[C@@H]1c1cc(O)c(O)c(O)c1)c1cc(O)c(O)c(O)c1 [EGCG, Epigallocatechin gallate]
concentration of inflammatory cytokines (IL-1β, IL-6, IL-8, and TNF-α) in cornea [1]: has the anti-inflammatory effect | Relative Transcription Ratios of the 4 inflammation factors (IL-1β, IL-6, IL-8, TNF-α) [2]: does have anti-inflammatory effect
